According to patent US20240018102A1, “COMPOUNDS AND COMPOSITIONS FOR TREATING CONDITIONS ASSOCIATED WITH LPA RECEPTOR ACTIVITY” (Lhotse Bio, Inc., priority 2020, published 2024):

Molecular target: T1, human LPA1 (Homo sapiens, UniProt Q92633)
T1 construct: expressed in transfected cells; host or cells: CHO-K1
Experiment: In vitro LPA1 calcium flux antagonist assay, Bioduro protocol
Assay type: cell-based
Conditions: CHO-K1 cells overexpressing human LPA1 and G15a; LPA challenge at EC80; calcium mobilization on FLIPR Tetra; read-out: IC50 (nM) in Assay B2
Description: In Vitro LPA1 Calcium Flux Antagonist Assay Bioduro Protocol
CHO-K1 cells overexpressing human LPA1 and G15a were seeded at a total volume of 20 uL (15000 cells/well) into Matrigel pre-coated 384-well plates (coming -3764) and incubated at 37° C. After overnight incubation, the cells were serum starved for 4 h. Assays were performed in dye loading buffer containing 1× Fluo-8 AM (AAT Bioquest, 21080) and 2.5 mM probenecid (Thermo Fisher, 36400) in HBSS/20 mM Hepes. After cell starvation, the medium was replaced with 20 uL of dye loading buffer and incubated at 37° C. for 30 min. Then 5 uL of 5× compound titrated in dye loading buffer was added to the cells and incubated for 30 min followed by LPA challenge at EC80. Calcium mobilization was measured on a FLIPR Tetra (MDS). For LPA EC80 determination, starved cells were incubated with 20 uL of dye loading buffer for 1 h, then 5 uL of 5×LPA titrated in dye loading buffer was added to the cells. Calcium signals induced by LPA was monitors on a FLIPR.
Percentage inhibition is calculated using the following formula:
% Inhibition=100%×(1−(mean RFU of test sample−mean RFU of DMSO)/(mean RFU of LPA control−mean RFU of DMSO)).

T1 sequence (Q92633 whole entry): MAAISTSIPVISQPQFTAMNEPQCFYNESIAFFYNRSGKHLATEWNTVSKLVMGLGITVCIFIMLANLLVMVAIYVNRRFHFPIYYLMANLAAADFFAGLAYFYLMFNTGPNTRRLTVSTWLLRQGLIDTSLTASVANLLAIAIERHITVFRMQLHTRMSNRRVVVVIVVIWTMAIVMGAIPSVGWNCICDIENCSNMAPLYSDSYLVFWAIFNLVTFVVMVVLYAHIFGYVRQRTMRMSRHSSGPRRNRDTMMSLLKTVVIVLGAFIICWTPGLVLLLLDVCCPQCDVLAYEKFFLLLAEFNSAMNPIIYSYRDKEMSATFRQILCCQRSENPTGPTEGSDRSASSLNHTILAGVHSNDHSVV

IC50 [nM] | Structure (SMILES)
938 | COc1cc([C@@H](O)[C@H](Cn2cc3nccc(C(=O)O)c3n2)OC2CCCC2)c(Cl)cc1C [Compound 201]
4260 | COc1cc([C@@H](O)[C@H](Cn2cc3nccc(C(=O)O)c3n2)OC2CCCC2)c(Cl)c(OC)c1C [Compound 202]
530 | CCOc1cc([C@@H](O)[C@H](Cn2cc3nccc(C(=O)O)c3n2)OC2CCCC2)cc(OCC)c1C [Compound 203]
122 | CCOc1cc([C@@H](O)[C@H](Cn2cc3nccc(C(=O)O)c3n2)OC2CCCC2)cc(OCC)c1C(C)=O [Compound 204]
507 | COc1cc([C@@H](O)[C@H](Cn2cc3nccc(C(=O)O)c3n2)OC2CCCC2)cc(OC)c1C1CC1 [Compound 205]
2120 | COc1cc([C@@H](O)C(Cc2nc(CC(=O)O)c(C(=O)O)s2)OC2CCCC2)cc(OC)c1C (stereo partly drawn) [Compound 206]
723 | COc1cc([C@@H](O)C(Cc2nc(C3(C(=O)O)CC3)c(C)s2)OC2CCCC2)cc(OC)c1C (stereo partly drawn) [Compound 207]
≥ 10000 | CCOc1cc([C@@H](O)[C@H](Cn2cc3cncc(C(=O)O)c3n2)OC2CCCC2)cc(OCC)n1 [Compound 208]
7810 | COC(=O)Cc1nc(CC(OC2CCCC2)[C@H](O)c2cc(OC)c(C)c(OC)c2)sc1C(=O)O (stereo partly drawn) [Compound 210]
459 | COc1cc([C@@H](O)[C@H](Cn2cc3nccc(C(=O)O)c3n2)OCC(C)C)cc(OC)c1C [Compound 211]
10.8 | COc1cc([C@@H](O)[C@H](Cn2cc3nc(C#N)cc(C(=O)O)c3n2)OC2CCCC2)cc(OC)c1C [Compound 212]
≥ 10000 | COc1cc([C@@H](O)[C@H](Cn2nnc3c(C(=O)O)cccc32)OC2CCCC2)cc(OC)c1C [Compound 213]
> 10000 | COc1cc([C@@H](O)[C@H](Cn2cc3nccc(C(=O)O)c3n2)OCCCc2ccccc2)cc(OC)c1C [Compound 214]
140 | COc1cc([C@@H](O)[C@H](Cn2cc3nccc(C(=O)O)c3n2)OC2CCCC2)cc(OC)c1C(F)F [Compound 215]
9.61 | COc1cc([C@@H](O)[C@H](Cn2cc3c(OC)ccc(C(=O)O)c3n2)OC2CCCC2)cc(OC)c1C [Compound 216]
1300 | COc1cc([C@@H](O)[C@H](Cc2cn3cc(C)cc(C(=O)O)c3n2)OC2CCCC2)cc(OC)c1C [Compound 217]
13 | COc1cc([C@@H](O)[C@H](Cc2cc3cc(C)cc(C(=O)O)n3n2)OC2CCCC2)cc(OC)c1C [Compound 218]
20.4 | CCCc1cc(C(=O)O)c2nn(C[C@H](OC3CCCC3)[C@H](O)c3cc(OC)c(C)c(OC)c3)cc2n1 [Compound 219]
106 | COc1cc([C@@H](O)[C@H](Cn2cc3cc(CNC(C)=O)cc(C(=O)O)c3n2)OC2CCCC2)cc(OC)c1C [Compound 220]
91.8 | COc1cc([C@@H](O)[C@H](Cn2cc3cc(C(N)=O)cc(C(=O)O)c3n2)OC2CCCC2)cc(OC)c1C [Compound 221]
43.4 | COc1cc([C@@H](O)[C@H](Cn2cc3nc(C(N)=O)cc(C(=O)O)c3n2)OC2CCCC2)cc(OC)c1C [Compound 222]
99.4 | COc1cc([C@@H](O)[C@H](Cc2nc(CC(=O)O)c(C(C)C)s2)OC2CCCC2)cc(OC)c1C [Compound 223]
327 | COc1cc([C@@H](O)[C@H](Cn2cc3nccc(C(=O)O)c3n2)OC2CCCC2)cc(OC)c1Br [Compound 224]
29.3 | COc1cc([C@@H](O)[C@H](Cn2cc3cc(C#N)cc(C(=O)O)c3n2)OC2CCCC2)ccc1C(F)F [Compound 225]
28.9 | CCOc1cc([C@@H](O)[C@H](Cn2cc3cc(C#N)cc(C(=O)O)c3n2)OC2CCCC2)cc(OCC)c1C [Compound 226]
149 | COc1cc([C@@H](O)[C@H](Cn2cc3cc(C#N)cc(C(=O)O)c3n2)OC2CCCC2)ccc1C1CC1 [Compound 227]
62.2 | Cc1ccc([C@@H](O)[C@H](Cn2cc3cc(C#N)cc(C(=O)O)c3n2)OC2CCCC2)cc1OC(F)(F)F [Compound 228]
